Experimental data from patent US20260250318A1, “COMPOSITIONS AND METHODS FOR CROSSING THE BLOOD BRAIN BARRIER” (VOYAGER THERAPEUTICS, INC., priority 2022, published 2026).

System: brains, heart, liver, muscle, and DRG of the NHPs
Test: Maturation of TTM-001 and TTM-002 capsids, NGS enrichment in NHP tissues
Assay type: in vivo
From the text: This Example describes maturation of the AAV9 capsid variants, TTM-001 (SEQ ID NO: 981 (amino acid) and 983 (DNA), comprising SEQ ID NO: 941 (encoded by SEQ ID NO: 942)) and TTM-002 (SEQ ID NO: 982 (amino acid) and 984 (DNA), comprising SEQ ID NO: […] (encoded by SEQ ID NO: 944)) in NHPs to further enhance their transduction and biodistribution in the central nervous system as well as other tissues, and evolve the AAV capsid variants to provide further cross-species compatibility. Two approaches were used to mature the TTM-001 and TTM-002 capsid sequences in order to randomize and mutate within and around the peptide insert comprised within loop IV of the capsid variant. […] In the first maturation approach, sets of three contiguous amino acids were randomized across the mutagenesis region in the TTM-001 and TTM-002 sequences, which spanned from position 450 to position 466, numbered according to SEQ ID NO: 981 and 982. In the second maturation approach, mutagenic primers were used to introduce point mutations at a low frequency, scattered across the mutagenesis region in the TTM-001 and TTM-002 sequences ranging from position 449 to position 466, numbered according to SEQ ID NO: 981 and 982. AAV capsid variants arising from each maturation approach for TTM-001 and TTM-002 were pooled together, for subsequent testing and characterization in NHPs.
The library of pooled matured AAV capsid variants generated using the first maturation approach and the second maturation approach for the TTM-001 and TTM-002 AAV capsid variants were injected into two NHPs. […] Following RNA recovery and RT-PCR amplification, a systematic NGS enrichment analysis was performed to calculate the fold enrichment ratio relative to an AAV9 control, and the peptides comprised within the variants were identified.
Following the RNA recovery and NGS analysis from the second maturation approach, approximately 680,000 capsid variants were identified. The 680,000 matured capsid variants were then filtered based on samples with a raw virus count greater than 10 and a coefficient of variance (CV) of less than 1, which was calculated for each peptide across the brain samples taken from the two NHPs. […] Using this filtering criteria, this led to approximately 64,000 matured capsid variants.

[1] = NHP DRG, NGS, relative to AAV9 control
[2] = NHP brain, NGS, relative to AAV9 control
[3] = NHP heart, NGS, relative to AAV9 control
[4] = NHP liver DNA, NGS, relative to AAV9 control
[5] = NHP liver RNA, NGS, TTM-001 and TTM-002 matured AAV capsid variants, relative to AAV9 control
[6] = NHP muscle, NGS, relative to AAV9 control

Sequence	Fold Enrichment relative to AAV9, DRG (NHP) [1] [fold]	Fold Enrichment relative to AAV9, Brain (NHP) [2] [fold]	Fold Enrichment relative to AAV9, Heart (NHP) [3] [fold]	Fold Enrichment relative to AAV9, Liver DNA (NHP) [4] [fold]	Fold Enrichment relative to AAV9, Liver RNA (NHP) [5] [fold]	Fold Enrichment relative to AAV9, Muscle (NHP) [6] [fold]	Fold Enrichment relative to AAV9, DRG (NHP) (NGS fold-enrichment, DRG, NHP, relative to AAV9) [fold]	Fold Enrichment relative to AAV9, Brain (NHP) (NGS fold-enrichment, brain, NHP, relative to AAV9) [fold]	Fold Enrichment relative to AAV9, Heart (NHP) (NGS fold-enrichment, heart, NHP, relative to AAV9) [fold]	Fold Enrichment relative to AAV9, Liver DNA (NHP) (NGS fold-enrichment, liver DNA, NHP, relative to AAV9) [fold]	Fold Enrichment relative to AAV9, Liver RNA (NHP) (NGS fold-enrichment, liver RNA, NHP, relative to AAV9) [fold]	Fold Enrichment relative to AAV9, Muscle (NHP) (NGS fold-enrichment, muscle, NHP, relative to AAV9) [fold]
KTINGSGSPHSKARQRQT	0.000	0.000	0.000	2.205	56.775	0.000	–	–	–	–	–	–
KTINGSGSPHSKARWQQT	0.000	0.000	0.000	2.377	45.017	0.000	–	–	–	–	–	–
KTINGSGSPHSKCFLQQT	0.000	0.000	0.000	1.434	22.987	0.000	–	–	–	–	–	–
KTINGSGSPHSKCSVQQT	0.000	0.000	0.000	1.465	12.246	0.000	–	–	–	–	–	–
KTINGSGSPHSKCTSQQT	–	–	–	–	–	–	0.232	0.493	1.413	5.821	10.311	2.353
KTINGSGSPHSKFFIQQT	0.000	0.000	0.000	6.916	63.255	0.000	–	–	–	–	–	–
KTINGSGSPHSKFKNQQT	0.000	0.000	0.000	1.074	21.951	0.000	–	–	–	–	–	–
KTINGSGSPHSKFRQQQT	0.000	0.000	0.000	3.260	38.665	0.000	–	–	–	–	–	–
KTINGSGSPHSKGCTQQT	0.000	0.000	0.000	0.529	26.068	0.000	–	–	–	–	–	–
KTINGSGSPHSKIRGQQT	0.000	0.000	0.000	1.584	18.150	0.000	–	–	–	–	–	–
KTINGSGSPHSKIRRQQT	0.000	0.000	0.000	1.388	53.528	0.000	–	–	–	–	–	–
KTINGSGSPHSKKTSQQT	0.000	0.000	0.000	1.344	15.244	0.000	–	–	–	–	–	–
KTINGSGSPHSKKVFQQT	0.000	0.000	0.000	4.480	43.747	0.000	–	–	–	–	–	–
KTINGSGSPHSKLCTQQT	0.000	0.000	0.000	1.269	18.674	0.000	–	–	–	–	–	–
KTINGSGSPHSKLFWQQT	0.000	0.000	0.000	4.178	37.022	0.000	–	–	–	–	–	–
KTINGSGSPHSKLKRQQT	0.000	0.000	0.000	6.884	76.103	0.000	–	–	–	–	–	–
KTINGSGSPHSKLPKQQT	0.000	0.000	0.000	0.274	11.856	0.000	–	–	–	–	–	–
KTINGSGSPHSKMICQQT	0.000	0.000	0.000	0.144	21.036	0.000	–	–	–	–	–	–
KTINGSGSPHSKMPCQQT	0.000	0.000	0.000	1.063	15.343	0.000	–	–	–	–	–	–
KTINGSGSPHSKNSRQQT	0.000	0.000	0.000	1.093	11.280	0.000	–	–	–	–	–	–
KTINGSGSPHSKPFRQQT	0.000	0.000	0.000	8.700	29.842	0.000	–	–	–	–	–	–
KTINGSGSPHSKPKRQQT	0.000	0.000	0.000	2.832	52.881	0.000	–	–	–	–	–	–
KTINGSGSPHSKQRPQQT	0.000	0.000	0.000	2.347	11.130	0.000	–	–	–	–	–	–
KTINGSGSPHSKRHRQQT	0.000	0.000	0.000	4.648	73.225	0.000	–	–	–	–	–	–
KTINGSGSPHSKRKRQQT	0.000	0.000	0.000	3.027	11.215	0.000	–	–	–	–	–	–
